Earlier results in publication PMC11643554, “Synthesis, Cytotoxicity and Antiproliferative Effect of New Pyrrole Hydrazones” (Molecules, 2024).

Tested on: melanoma cells
Set-up: method as in PMID 25524552, PMID 29364157
Settings: standard cytostatics used in chemotherapy, compared with 1C in SH-4 melanoma cells; cited from earlier work

| SMILES | IC50 [µM] |
| --- | --- |
| CN(C)C(=O)c1cc2cnc(Nc3ccc(N4CCNCC4)cn3)nc2n1C1CCCC1 [Ribociclib] | 35 |
| Cn1nnc2c(C(N)=O)ncn2c1=O [Temozolomide] | 50 |
| N.N.O=C([O-])C1(C(=O)[O-])CCC1.[Pt+2] [Carboplatin] | 18.2 |
